Reference: patent US20230233569A1 (Revolution Medicines, Inc., priority 2020, published 2023)
pIC50: −log10 of the molar value.

Experiments:
Test in all cases: Ras-Raf disruption / FRET / MOA assay (BRAF RBD)
Assay type in all cases: biochemical
[1] = molecular target: KRAS G12C (Homo sapiens, UniProt P01116+P62937, G12C); settings: Ras-Raf disruption, with Cyclophilin A; read-out: KRAS G12C FRET data IC50
Method in brief: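 TR-FRET read-out after 1.5 h with anti-His Eu-W1024 (10 nM) and anti-GST APC (50 nM), following 3 h at 25 °C of compound (top 30 μM, 3-fold, 10 points) with 25 μM Cyclophilin A, 12.5 nM GMPPNP-loaded K-Ras G12C and 50 nM BRAF RBD; IC50 reported.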

[2] = molecular target: NRAS Q61R (Homo sapiens, UniProt P01111+P62937, Q61R); settings: NRAS Q61R; read-out: NRAS Q61R FRET data IC50
Method in brief: (§1)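 Compound-induced Ras–Cyclophilin A ternary complex disrupting BRAF RBD binding, read as IC50 from reduced TR-FRET ratio relative to DMSO. Final: Ras-GMPPNP 12.5 nM, BRAF RBD 50 nM, Cyclophilin A 25 μM, top compound 30 μM (3-fold, 10 points); 3 h at 25 °C, then 1.5 h with detection antibodies.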

[3] = molecular target: KRAS WT (Homo sapiens, UniProt P01116+P62937); settings: Ras-Raf disruption, with Cyclophilin A; read-out: KRAS WT FRET data IC50
Method in brief: as §1

[4] = molecular target: KRAS G12D (Homo sapiens, UniProt P01116+P62937, G12D); settings: Ras-Raf disruption, with Cyclophilin A; read-out: KRAS G12D FRET data IC50
Method in brief: as §1

[5] = molecular target: KRAS G13D (Homo sapiens, UniProt P01116+P62937, G13D); settings: Ras-Raf disruption, with Cyclophilin A; read-out: KRAS G13D FRET data IC50
Method in brief: as §1

[6] = molecular target: NRAS G12C (Homo sapiens, UniProt P01111+P62937, G12C); settings: NRAS G12C; read-out: NRAS G12C FRET data IC50
Method in brief: as §1

[7] = molecular target: NRAS Q61K (Homo sapiens, UniProt P01111+P62937, Q61K); settings: NRAS Q61K; read-out: NRAS Q61K FRET data IC50
Method in brief: as §1

[8] = molecular target: NRAS WT (Homo sapiens, UniProt P01111+P62937); settings: NRAS WT; read-out: NRAS WT FRET data IC50
Method in brief: as §1

[9] = molecular target: KRAS G13C (Homo sapiens, UniProt P01116+P62937, G13C); settings: Ras-Raf disruption, with Cyclophilin A; read-out: KRAS G13C FRET data IC50
Method in brief: as §1

[10] = molecular target: KRAS G12V (Homo sapiens, UniProt P01116+P62937, G12V); settings: Ras-Raf disruption, with Cyclophilin A; read-out: KRAS G12V FRET data IC50
Method in brief: as §1

[11] = molecular target: KRAS Q61H (Homo sapiens, UniProt P01116+P62937, Q61H); settings: KRAS Q61H; read-out: KRAS Q61H FRET data IC50
Method in brief: as §1

[12] = molecular target: KRAS G12S (Homo sapiens, UniProt P01116+P62937, G12S); settings: Ras-Raf disruption, with Cyclophilin A; read-out: KRAS G12S FRET data IC50
Method in brief: as §1

Sequence of NRAS G12C (P01111 whole entry G12C): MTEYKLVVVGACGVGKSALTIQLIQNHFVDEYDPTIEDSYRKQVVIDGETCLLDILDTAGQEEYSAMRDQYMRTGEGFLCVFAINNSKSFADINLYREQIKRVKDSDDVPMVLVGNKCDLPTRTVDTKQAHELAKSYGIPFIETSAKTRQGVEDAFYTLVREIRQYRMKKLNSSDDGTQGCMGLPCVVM
Sequence of NRAS G12C (P62937 whole entry): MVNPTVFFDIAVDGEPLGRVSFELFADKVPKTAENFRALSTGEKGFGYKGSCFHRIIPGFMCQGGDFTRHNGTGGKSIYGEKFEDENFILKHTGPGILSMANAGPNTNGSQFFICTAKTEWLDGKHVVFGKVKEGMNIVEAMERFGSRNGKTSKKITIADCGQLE
Sequence of KRAS G12C (P01116 1-169 isoform P01116-2 G12C limits assumed): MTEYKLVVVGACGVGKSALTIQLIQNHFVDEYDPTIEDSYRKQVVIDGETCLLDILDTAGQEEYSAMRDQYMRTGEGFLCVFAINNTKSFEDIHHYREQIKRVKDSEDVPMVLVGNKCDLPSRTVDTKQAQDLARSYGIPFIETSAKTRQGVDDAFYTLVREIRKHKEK
Sequence of KRAS G12C (P62937 whole entry): as the sequence (P62937 whole entry) above
Sequence of KRAS WT (P01116 1-169 isoform P01116-2 limits assumed): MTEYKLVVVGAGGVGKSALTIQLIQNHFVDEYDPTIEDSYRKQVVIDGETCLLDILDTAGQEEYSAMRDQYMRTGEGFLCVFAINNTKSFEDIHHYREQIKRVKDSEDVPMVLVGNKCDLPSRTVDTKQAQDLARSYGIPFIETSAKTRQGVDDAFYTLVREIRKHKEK
Sequence of KRAS WT (P62937 whole entry): as the sequence (P62937 whole entry) above
Sequence of KRAS G12D (P01116 1-169 isoform P01116-2 G12D limits assumed): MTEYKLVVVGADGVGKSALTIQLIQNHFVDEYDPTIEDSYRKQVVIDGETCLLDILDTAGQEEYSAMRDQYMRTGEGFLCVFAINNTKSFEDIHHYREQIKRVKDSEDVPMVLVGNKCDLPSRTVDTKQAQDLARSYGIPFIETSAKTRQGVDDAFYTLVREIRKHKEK
Sequence of KRAS G12D (P62937 whole entry): as the sequence (P62937 whole entry) above
Sequence of KRAS G12V (P01116 1-169 isoform P01116-2 G12V limits assumed): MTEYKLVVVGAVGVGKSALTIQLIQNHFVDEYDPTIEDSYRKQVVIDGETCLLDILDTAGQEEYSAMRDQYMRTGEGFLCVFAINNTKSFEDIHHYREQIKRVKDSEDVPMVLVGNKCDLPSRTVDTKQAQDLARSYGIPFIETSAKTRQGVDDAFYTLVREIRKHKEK
Sequence of KRAS G12V (P62937 whole entry): as the sequence (P62937 whole entry) above
Sequence of NRAS Q61R (P01111 whole entry Q61R): as the sequence (P01111 whole entry G12C) above, with C12G, Q61R counted along it
Sequence of NRAS Q61R (P62937 whole entry): as the sequence (P62937 whole entry) above
Sequence of NRAS WT (P01111 whole entry): as the sequence (P01111 whole entry G12C) above, with C12G counted along it
Sequence of NRAS WT (P62937 whole entry): as the sequence (P62937 whole entry) above
Sequence of KRAS Q61H (P01116 1-169 isoform P01116-2 Q61H limits assumed): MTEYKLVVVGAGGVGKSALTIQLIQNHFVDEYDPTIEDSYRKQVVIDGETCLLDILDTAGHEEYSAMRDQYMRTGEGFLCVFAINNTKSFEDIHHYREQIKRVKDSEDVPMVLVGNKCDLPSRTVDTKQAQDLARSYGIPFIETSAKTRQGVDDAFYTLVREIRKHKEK
Sequence of KRAS Q61H (P62937 whole entry): as the sequence (P62937 whole entry) above
Sequence of KRAS G12S (P01116 1-169 isoform P01116-2 G12S limits assumed): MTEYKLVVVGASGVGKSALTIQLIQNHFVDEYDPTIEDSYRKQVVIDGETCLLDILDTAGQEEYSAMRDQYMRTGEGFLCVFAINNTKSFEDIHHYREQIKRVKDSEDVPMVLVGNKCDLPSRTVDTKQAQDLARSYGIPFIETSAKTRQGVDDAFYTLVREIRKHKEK
Sequence of KRAS G12S (P62937 whole entry): as the sequence (P62937 whole entry) above
Sequence of NRAS Q61K (P01111 whole entry Q61K): as the sequence (P01111 whole entry G12C) above, with C12G, Q61K counted along it
Sequence of NRAS Q61K (P62937 whole entry): as the sequence (P62937 whole entry) above
Sequence of KRAS G13C (P01116 1-169 isoform P01116-2 G13C limits assumed): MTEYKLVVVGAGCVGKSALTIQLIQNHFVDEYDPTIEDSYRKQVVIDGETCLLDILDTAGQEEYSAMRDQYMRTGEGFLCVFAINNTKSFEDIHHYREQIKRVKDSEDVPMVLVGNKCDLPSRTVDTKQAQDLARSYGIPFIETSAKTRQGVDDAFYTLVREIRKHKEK
Sequence of KRAS G13C (P62937 whole entry): as the sequence (P62937 whole entry) above
Sequence of KRAS G13D (P01116 1-169 isoform P01116-2 G13D limits assumed): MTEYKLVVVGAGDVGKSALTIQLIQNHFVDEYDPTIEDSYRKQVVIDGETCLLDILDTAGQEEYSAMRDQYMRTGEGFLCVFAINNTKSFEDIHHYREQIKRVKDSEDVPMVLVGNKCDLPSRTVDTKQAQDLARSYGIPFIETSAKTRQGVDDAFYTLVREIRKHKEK
Sequence of KRAS G13D (P62937 whole entry): as the sequence (P62937 whole entry) above

| Compound | pIC50 [1] | pIC50 [2] | pIC50 [3] | pIC50 [4] | pIC50 [5] | pIC50 [6] | pIC50 [7] | pIC50 [8] | pIC50 [9] | pIC50 [10] | pIC50 [11] | pIC50 [12] |
| --- | --- | --- | --- | --- | --- | --- | --- | --- | --- | --- | --- | --- |
| CCn1c(-c2cccnc2[C@H](C)OC)c2c3cc(ccc31)-c1cc(O)cc(c1)C[C@H](NC(=O)[C@H](C(C)C)N(C)C(=O)[C@H]1CCCN(C(=O)[C@@H]3CN3)C1)C(=O)N1CCC[C@H](N1)C(=O)OCC(C)(C)C2 [Example 236] | 7.00 to 8.00 | 5.00 to 6.00 | 6.00 to 7.00 | 6.00 to 7.00 | 6.00 to 7.00 | 7.00 to 8.00 | 5.00 to 6.00 | 6.00 to 7.00 | 6.00 to 7.00 | 6.00 to 7.00 | 6.00 to 7.00 | 6.00 to 7.00 |
| CCn1c(-c2cccnc2[C@H](C)OC)c2c3cc(ccc31)-c1cc(O)cc(c1)C[C@H](NC(=O)[C@H](C(C)C)N(C)C(=O)[C@@H]1CCCN(C(=O)[C@@H]3CN3)C1)C(=O)N1CCC[C@H](N1)C(=O)OCC(C)(C)C2 [Example 238] | 7.00 to 8.00 | 6.00 to 7.00 | 7.00 to 8.00 | 6.00 to 7.00 | 6.00 to 7.00 | 7.00 to 8.00 | 6.00 to 7.00 | 7.00 to 8.00 | 7.00 to 8.00 | 6.00 to 7.00 | 7.00 to 8.00 | 7.00 to 8.00 |
| CCn1c(-c2cccnc2[C@H](C)OC)c2c3cc(ccc31)-c1csc(n1)C[C@H](NC(=O)[C@H](C(C)C)N(C)C(=O)N1CCN(C(=O)[C@H]3CN3)[C@@H](C)C1)C(=O)N1CCC[C@H](N1)C(=O)OCC(C)(C)C2 [Example 297] | 7.00 to 8.00 | 7.00 to 8.00 | 7.00 to 8.00 | 6.00 to 7.00 | 6.00 to 7.00 | 7.00 to 8.00 | 7.00 to 8.00 | 7.00 to 8.00 | 7.00 to 8.00 | 6.00 to 7.00 | 7.00 to 8.00 | 6.00 to 7.00 |
| CCn1c(-c2cccnc2[C@H](C)OC)c2c3cc(ccc31)-c1csc(n1)C[C@H](NC(=O)[C@H](C(C)C)N(C)C(=O)N1CCN(C(=O)[C@@H]3CN3)[C@@H](C)C1)C(=O)N1CCC[C@H](N1)C(=O)OCC(C)(C)C2 [Example 298] | 7.00 to 8.00 | 7.00 to 8.00 | 7.00 to 8.00 | 6.00 to 7.00 | 6.00 to 7.00 | 7.00 to 8.00 | 7.00 to 8.00 | 7.00 to 8.00 | 6.00 to 7.00 | 6.00 to 7.00 | 7.00 to 8.00 | 7.00 to 8.00 |
| CCn1c(-c2cccnc2[C@H](C)OC)c2c3cc(ccc31)-c1csc(n1)C[C@H](NC(=O)[C@H](C(C)C)N(C)C(=O)N1CCN(C(=O)[C@H]3CN3)[C@H](C)C1)C(=O)N1CCC[C@H](N1)C(=O)OCC(C)(C)C2 [Example 299] | 7.00 to 8.00 | 6.00 to 7.00 | 6.00 to 7.00 | 6.00 to 7.00 | 6.00 to 7.00 | 7.00 to 8.00 | 7.00 to 8.00 | 6.00 to 7.00 | 6.00 to 7.00 | 6.00 to 7.00 | 7.00 to 8.00 | 6.00 to 7.00 |
| CCn1c(-c2cccnc2[C@H](C)OC)c2c3cc(ccc31)-c1csc(n1)C[C@H](NC(=O)[C@H](C(C)C)N(C)C(=O)N1CCN(C(=O)[C@@H]3CN3)[C@H](C)C1)C(=O)N1CCC[C@H](N1)C(=O)OCC(C)(C)C2 [Example 300] | 6.00 to 7.00 | 6.00 to 7.00 | 6.00 to 7.00 | 6.00 to 7.00 | 6.00 to 7.00 | 7.00 to 8.00 | 7.00 to 8.00 | 6.00 to 7.00 | 6.00 to 7.00 | 6.00 to 7.00 | 7.00 to 8.00 | 6.00 to 7.00 |
